Read-outs that look alike come from different tables or passages of the source. Where a SMILES comes first, the peptide text is derived from it. Bridges are numbered along the chain shown (N, C = ends). [ ]: non-standard residue; d: D form.
How the values were obtained:
[1] = system: ischemic reperfusion injury in mouse heart; assay type: in vivo, C57B1/6J mice; conditions: for myocardial infarction (infarct area / AAR): 4 h reperfusion, vehicle 16.5±1.2%
Procedure: Acute GsMTx4-D treatment: All animal protocols in this study were approved by the Institutional Animal Care and Use Committee of the University at Buffalo-State University of New York. C57B1/6J mice were anesthetized with 80 mg/kg of sodium pentobarbital (Sigma, St. Louis, Mo.) via intraperitoneal injection (IP), intubated and ventilated with a respirator (Harvard apparatus, Holliston, Mass., USA) 17. Upon absence of a pedal reflex, surgery was performed under a stereomicroscope. Core body temperature was maintained at 37° C. with a heating pad. After a left lateral thoracotomy, the left anterior descending coronary artery (LAD) was occluded just underneath the left atrium for 20 min with an 8-0 nylon suture. […] A small piece of gauze was used to prevent arterial injury. After 20 min the ligature was removed and the tissue was reperfused for up to 4 h before euthanizing. Three different doses of GsMTx4-D (0.1, 1, 10 mg/kg), verapamil (0.4 mg/kg) or vehicle (saline 50 μL) were administered via tail vein injection 5 min before reperfusion (during induced ischemia). ECGs confirmed the hallmark ischemic ST segment elevation during coronary occlusion (AD Instruments, Colorado Springs, CO, USA). Each group included 5 independent experiments. At the conclusion of the study, mice were euthanized by IP injection of 270 mg/kg pentobarbital. GsMTx4-D pretreatment: To evaluate the effect of GsMTx4-D pretreatment, GsMTx4-D (50 mg/kg) or vehicle (saline 50 μL) were administered via IP injection once daily for 2 days prior to surgery. Ischemia was then elicited with the same 20 min coronary occlusion followed by 24 h reperfusion. Following reperfusion, the chest was closed in layers. A drop of lidocaine was put on the suture site and the mouse was slowly weaned off the ventilator when they resumed spontaneous breathing. The mouse was returned to its cage and kept warm and medicated for pain (buprenorphine). Each group included 5 independent experiments.
To measure infarct size, hearts were harvested and excised for dual staining at the conclusion of reperfusion. The non-necrotic tissue in the ischemic region was stained red with 2,3,5- triphenyltetrazolium (TTC) and non-ischemic regions were stained blue with Evans blue. The hearts were fixed and sectioned into 1 mm slices, photographed with a Lexica MZ95 microscope and analyzed with NIH ImageJ software (http://imagej.nih.gov/ij/) 19. The infarct size was calculated as the ratio of the percentage of myocardial necrosis to the ischemic Area At Risk (AAR).
To test whether GsMTx4-D protected the heart against reperfusion injury, we first tested three different doses of the peptide. The positive control was verapamil, a voltage-gated calcium channel inhibitor with established cardioprotective effects on IRI. C57B1/6 mice were subjected to 20 min occlusion of the LAD followed by 4 hours of reperfusion. Three different concentrations of GsMTx4-D (0.1, 1 and 10 mg/kg), verapamil (0.4 mg/kg), or vehicle (saline) were administered through tail vein injection 5 min before reperfusion. […] At the conclusion of reperfusion, the hearts were stained with TTC and Evans Blue (FIG. 2A). […] The verapamil group also had lower infarction size (14.0±0.4%), but the difference wasn't statistically significant. […] To evaluate whether pretreatment with GsMTx4-D could also protect the heart from I/R injury, GsMTx4-D (50 mg/kg) or vehicle (saline 50 μL) were administered daily via IP injection, for 2 days prior to I/R surgery. As before, ischemia was induced from 20 min LAD occlusion, but reperfusion was allowed to continue for 24 hrs. The chest was closed in layers, and animals were weaned off the ventilator when they resumed spontaneous breathing. […] The ratios of AAR to total myocardial area between the two groups were equal as determined by TTC and Evans Blue staining (FIG. 3A and B). […]

[2] = system: I/R induced arrhythmias in mouse heart; test: Heart rhythm analysis (ECG) during reperfusion, I/R induced arrhythmia; assay type: in vivo, C57B1/6J mice; conditions: for total incidence of arrhythmias (ventricular and supraventricular premature beats): vehicle 14.9±4.5; for mean heart rate during the 15 min of reperfusion: vehicle 162.9±13.2
Procedure: During reperfusion we continuously recorded ECGs, from which mean heart rate, PR, QRS, and QT intervals were derived for each animal. We evaluated the incidence of arrhythmias by counting the incidences of arrhythmias including ventricular and supraventricular premature beats by summing the number of episodes based on limb lead recordings for 15 min after reperfusion. Ventricular premature beats are considered more severe. Each group contained 5 to 7 independent experiments (vehicle n=7, verapamil n=6, GsMTx4-D 0.1mg/kg n=5, 1 mg/kg n=6 and 10 mg/kg n=5).
Heart rate and rhythm were monitored by ECG to confirm the hallmark ischemic ST-segment elevation during coronary occlusion, and the gradually increasing inversion of the T-wave during reperfusion (FIG. 4A). Since generation of arrhythmias is a good indicator of the level of I/R damage, we counted ventricular and supraventricular premature beats occurring within 15 min of reperfusion (FIG. 4B). No ventricular tachycardia was observed during 20 min ischemia and 15 min reperfusion in the mouse heart. […] Considering that ventricular premature beats are indicative of more severe damage, the incidence of this specific arrhythmia was analyzed separately (FIG. 4 D). […] There was no difference in mean heart rate before ischemia (FIG. 4E). […] There was no difference in PR, QRS or QT intervals after treatment in all groups (data not shown).

SMILES: CC(C)C[C@H]1NC(=O)[C@H](NC(=O)CN)CSSC[C@H]2NC(=O)[C@H]3CSSC[C@H](C(=O)N[C@H](CC(N)=O)C(=O)N[C@H](Cc4ccccc4)C(=O)N[C@H](CO)C(=O)N[C@H](Cc4ccccc4)C(N)=O)NC(=O)[C@@H](CC(C)C)NC(=O)[C@@H](CCCCN)NC(=O)[C@@H](Cc4ccccc4)NC(=O)[C@@H](CC(C)C)NC(=O)[C@@H](CCCCN)NC(=O)[C@@H](CO)NC(=O)[C@@H](CSSC[C@@H](NC(=O)[C@@H](CCCCN)NC(=O)[C@@H](Cc4c[nH]c5ccccc45)NC(=O)[C@@H](Cc4c[nH]c5ccccc45)NC(=O)[C@@H](Cc4ccccc4)NC(=O)[C@@H](CCC(=O)O)NC1=O)C(=O)N[C@H](CC(N)=O)C(=O)N1CCC[C@@H]1C(=O)N[C@H](CC(N)=O)C(=O)N[C@H](CC(=O)O)C(=O)N[C@H](CC(=O)O)C(=O)N[C@H](CCCCN)C(=O)N3)NC(=O)[C@@H](CCCCN)NC(=O)[C@@H](CC(C)C)NC(=O)[C@@H](CCCCN)NC(=O)[C@H]1CCCN1C(=O)[C@@H](CCCNC(=N)N)NC2=O [GsMTx4-D] (H-G[dC][dL][dE][dF][dW][dW][dK][dC][dN][dP][dN][dD][dD][dK][dC][dC][dR][dP][dK][dL][dK][dC][dS][dK][dL][dF][dK][dL][dC][dN][dF][dS][dF]-NH2; disulfide 2-17, 9-23, 16-30 (inferred); N-terminus and C-terminus assumed)
- myocardial infarction (infarct area / AAR) ([1]; 1.0 mg/kg tail vein 5 min before reperfusion): 9.9±1.3%
- myocardial infarction (infarct area / AAR) ([1]; 10 mg/kg tail vein 5 min before reperfusion): 12.4±0.5%
- side-effects from pretreatment ([1]; 50 mg/kg IP daily for 2 days): did not detect any side-effects
- infarction size (infarct area / AAR) ([1]; 50 mg/kg IP daily for 2 days prior to surgery, 24 h reperfusion, vehicle 16.8±1.1%): 10.5±0.7%
- death or morbidity in acute I/R treatment ([1]; 0.1, 1 and 10 mg/kg tail vein injection): no death or morbidity observed
- toxicity in the heart during these studies ([1]; acute IV and IP pretreatment I/R studies): no overt signs of toxicity
- total incidence of arrhythmias (ventricular and supraventricular premature beats) ([2]; 0.1 mg/kg IV 5 min before reperfusion, not significantly different): 10.4±6 incidence/15 min reperfusion
- total incidence of arrhythmias (ventricular and supraventricular premature beats) ([2]; 1 mg/kg IV 5 min before reperfusion): 2.3±0.7 incidence/15 min reperfusion
- mean heart rate during the 15 min of reperfusion ([2]; 1 mg/kg IV): 255.7±33.4
- ventricular premature beats ([2]; 1 mg/kg IV, within 15 min of reperfusion, vehicle 5.7±1.8): 1.3±0.4
- total incidence of arrhythmias (ventricular and supraventricular premature beats) ([2]; 10 mg/kg IV 5 min before reperfusion): 2.2±1.0 incidence/15 min reperfusion
- mean heart rate during the 15 min of reperfusion ([2]; 10 mg/kg IV): 286.1±25.0

From patent US20170072012A1, “USE OF GSMTX4 TO REDUCE ISCHEMIA REPERFUSION INJURY” (priority 2014, published 2017)
